Four molecules from PMC7311426, “An amphipathic peptide with antibiotic activity against multidrug-resistant Gram-negative bacteria” (Nature Communications, 2020) can be followed below.

What is called AUC(0-t) is the area under the concentration-time curve up to a stated or last time point. Usually Cmax stands for the peak of the concentration-time curve. As usually defined, the AUC(0-inf) is total exposure, with the tail of the curve extrapolated. In general, NOAEL refers to the highest tested level that showed no adverse finding.

One data set deals with B. subtilis. Kind of data set: microbe, parasite or virus in culture. The conditions noted are these: for MIC: Bacillus subtilis. In outline:
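MICs were scored by eye after 18-20 h static incubation at 37 °C, with bacteria at 5 × 10^5 CFU mL^−1 in MHB. Peptides were serially diluted 2-fold over 12 points, top 128 or 64 μg mL^−1. CAMHB (CLSI) and 1% agarose-MHB variants were also run, at least six replicates.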

The nature of data set [1]: SPR binding to model membrane lipids. The conditions noted are these: for Binding to DMPC with lipid A versus DMPC alone (SPR): 1 µM and 10 µM, 100 × RU/MW at t = 180 s, n = 3, Student's t-test; for SPR response, Difference (Mean1 - Mean2): DMPC minus 10% lipid A-DMPC, multiple t-tests; for SPR response, Mean2 (10% lipid A-DMPC): mean of n = 3. Also on record: species or system E. coli. As for the experimental part:
(§1) SPR experiments were performed on a Biacore T200 using an L1 sensor chip as previously described. Small unilamellar vesicles (SUVs) were prepared in PBS by sonication and extrusion. Lipids were dissolved in ethanol-free chloroform in 25 mL round-bottom flasks. 10% (mol/mol) of E. coli lipid A, diphosphoryl (Sigma-Aldrich, Cat # L5399) was added into 1,2-dimyristoyl-sn-glycero-3-phosphocholine (DMPC) (Auspep, Cat # 850345P) solution to make lipid A–DMPC mixtures, which were then deposited as a thin film by removal of the solvent (chloroform) under reduced pressure on a rotary evaporator and dried under high vacuum for at least 2 h. PBS was then added into each flask to give a 1 mM (DMPC) suspension, which was sonicated 5 min for five times. […] The SUVs were then injected into the flow cells of the L1 sensor chip for 2000 s at a low flow rate of 2 μL min^−1 to form a bilayer membrane model on the chip surface. Then, a series of peptide solutions (30–0.33 μM in 3-fold dilution), was injected across the flow cells at a flow rate of 30 μL min^−1, having an injection phase of 180 s, and a dissociation phase of 300 s. The binding responses (RU) were normalized by molecular weight (MW) of each peptide. The equation 100 × RU/MW was used for normalization.
Background: In SPR one partner is held on a chip, and binding of the other changes the refractive index at the surface.

A short description of data set [2]: SPR binding to model membrane lipids. Also on record: unit: 100 × RU/MW. To be noted: mean of n = 3. As for the experimental part:
as §1

In the next data set the test system is E. coli AID#172. Type of data set: in vivo, E. coli in NMRI mice. As for the experimental part:
Peptides were prepared in Ringer’s acetate pH 6.0 (vehicle) at 34 mg mL^−1. Comparator antibiotics included meropenem (Meronem®, AstraZeneca), polymyxin B sulfate (Sigma) and tobramycin (Novartis).
The E. coli thigh infection in vivo model was conducted using an E. coli AID#172 strain in female NMRI mice (Taconic) that were rendered neutropenic as above. At time −1 h, mice were inoculated intramuscularly in the quadriceps femoral muscle close to the femur of the left hind leg with 0.05 mL of a suspension of ~1–5 × 10^7 CFU mL^−1 of E. coli (fresh overnight colonies from 5% Horse Blood Agar plate suspended in sterile saline to ~10^8 CFU mL^−1, then diluted) with compound administered intravenously 1 and 12 h post infection (injection over 30 s with 10 mL kg^−1 of 0.6–15 mg kg^−1 AA139 or 5 mg kg^−1 polymyxin B). Colony counts were determined in thighs at 0 and 24 h post infection. The mice were killed by cervical dislocation, the skin was removed and the left hind leg from the hip joint to the hock was collected, cut into at least three parts and frozen at −80 °C. After thawing, the thighs were homogenized in 5 mL saline using a Dispomix® Drive. Each sample was then 10-fold diluted in saline and 20 μL spots were applied on 5% blood agar plates. All agar plates were incubated 18–24 h at 35 °C in ambient air.

Data set [3] in a line: In vivo toxicity and safety pharmacology, i.v./i.p./s.c.

In brackets after ≈: the same amount, converted by molar mass. Read-outs that look alike come from different tables or passages of the source. Residues, ends and D or L forms follow the SMILES beside them.

Consider `CNC(C)C1CCC(N)C(OC2C(N)CC(N)C(OC3OCC(C)(O)C(NC)C3O)C2O)O1` (stereo not drawn) [Gentamicin, gentamicin, reference compound], for which the MIC in the data set with B. subtilis (ATCC6051 / NRS744, read-out: BMD MIC) is 0.25 µg/mL (≈ 0.523 µM); in the data set on B. subtilis (ATCC6633 / NRS231, read-out: BMD MIC), 0.5 µg/mL (≈ 1.05 µM).

As for colistin, the “Binding to DMPC with lipid A versus DMPC alone (SPR)” value in data set [1] is “Significant difference”. The figures for the “SPR response, Difference (Mean1 - Mean2)” value in data set [1] (1uM) and in data set [1] (10uM) were -12.5563 and -66.912, respectively. Moreover, the “SPR response, Mean2 (10% lipid A-DMPC)” value in data set [1] (1uM) is recorded as 19.5933; in data set [1] (10uM) it was 125.433. The “SPR response, Mean1 (DMPC)” value in data set [2] (1uM) turned out to be 7.037; in data set [2] (10uM), 58.5213.

For the molecule “polymyxin B [PolymyxinB, reference compound]”, the “Binding to DMPC with lipid A versus DMPC alone (SPR)” value in data set [1] is “Significant difference”. Also, the “SPR response, Difference (Mean1 - Mean2)” value is -20.0727 in data set [1] (1uM) and -95.8227 in data set [1] (10uM). The “SPR response, Mean2 (10% lipid A-DMPC)” value in data set [1] (1uM) was 48.41; in data set [1] (10uM), 222.033. Also, the entries for the “SPR response, Mean1 (DMPC)” value in data set [2] (1uM) and in data set [2] (10uM) were 28.3373 and 126.211, respectively. In the data set on E. coli AID#172 (5 mg kg^−1, two i.v. doses), the “Log reduction in thigh CFU compared to saline control” value came out at 3.13 log.

`CC(C)[C@@H]1NC(=O)[C@H](Cc2ccc(O)cc2)NC(=O)[C@H](Cc2c[nH]c3ccccc23)NC(=O)[C@@H](NC(=O)[C@H](Cc2ccccc2)NC(=O)CN)CSSC[C@@H](C(=O)N[C@@H](CC(N)=O)C(=O)O)NC(=O)[C@H](CCCNC(=N)N)NC(=O)[C@H](CCCNC(=N)N)NC(=O)[C@H](Cc2ccc(O)cc2)NC(=O)[C@@H]2CSSC[C@H](NC1=O)C(=O)N[C@@H](C)C(=O)N[C@@H](CCCNC(=N)N)C(=O)N[C@@H](CCCNC(=N)N)C(=O)N[C@@H](CC(N)=O)C(=O)NCC(=O)N[C@@H](C)C(=O)N[C@@H](CCCNC(=N)N)C(=O)N[C@@H](C(C)C)C(=O)N2` [AA139] (HELM PEPTIDE1{G.F.C.W.Y.V.C.A.R.R.N.G.A.R.V.C.Y.R.R.C.N}$PEPTIDE1,PEPTIDE1,3:R3-20:R3|PEPTIDE1,PEPTIDE1,7:R3-16:R3$$$V2.0) gave an NOAEL in mice in data set [3] (7-day or 14-day repeated 2 h i.v. infusion once or twice daily) of 20 mg kg^−1 per day. Moreover, the MTD in data set [3] (mouse, in vivo, ip) is 20 mg/kg; in data set [3] (mouse, in vivo, iv), 15 mg/kg; in data set [3] (mouse, in vivo, sc, 100 mg/kg) it was 100 mg/kg. Besides, the MTD at 168 h in data set [3] (mouse, in vivo, iv) turned out to be 25 mg/kg. Further, the area under the curve AUC(0-t) in data set [3] (mouse, in vivo, iv, 20 mg/kg) worked out at 28000 ng·h/mL. In addition, the Cmax in data set [3] (mouse, in vivo, iv, 20 mg/kg, Cmax, Mouse, 14-day iv toxicity, GLP, TK dose 20 mg/kg, Day 1) was determined as 11600 ng/mL; in data set [3] (mouse, in vivo, iv, 20 mg/kg, Cmax, Mouse, 14-day iv toxicity, GLP, TK dose 20 mg/kg, Day 14) it was 9600 ng/mL; in data set [3] (mouse, in vivo, iv, 29 mg/kg), 7500 ng/mL. In data set [3] (mouse, in vivo, iv, 29 mg/kg), this molecule displayed an AUC(0-inf) of 43800 ng·h/mL. Moreover, the no observed adverse effect level (NOAEL) at 168 h in data set [3] (mouse, in vivo, iv, NOAEL, 7-day iv MTD, IV 2-h infusion, doses 20, 25, 30) was 20 mg/kg. Also, the no observed adverse effect level (NOAEL) at 336 h in data set [3] (mouse, in vivo, iv, NOAEL, 14-day iv toxicity, GLP, IV 2-h infusion, 0, 10, 15, 20 BID) was 40 mg/kg/day. The NOAEL in data set [3] (mouse, in vivo, iv, NOAEL, CNS & respiratory safety pharmacology iv, IV 2-h infusion, doses 0, 15, 20, 25) was 20 mg/kg; in data set [3] (mouse, in vivo, iv, NOAEL, single-dose iv MTD, doses 0, 5, 7.5, 10, 15, 20), 5 mg/kg. Moreover, the “BMD MIC” value in the data set with B. subtilis was 2 µg/mL. Further, in the data set with E. coli AID#172 (mouse, in vivo, iv), the ED50 in thigh was 4.8 mg/kg.
